Assay results taken from patent publication US20220411388A1, “SUBSTITUTED IMIDAZOLE CARBOXAMIDES AND THEIR USE IN THE TREATMENT OF MEDICAL DISORDERS” (Bial - R&D Investments, S.A., priority 2019, published 2022).
Values after ≈ are worked out from the molar mass of the structure shown.

What was measured:
[1] = target: T1, acid ceramidase (hACR) (Homo sapiens, UniProt Q13510); assay: Acid ceramidase inhibition, biochemical fluorescent assay with cell lysates overexpressing acid ceramidase (substrate Rbm14-12); conditions: cell lysate, 1 hr preincubation at RT, pH 4.5, Rbm14-12 6.3 μM; read-out: IC50 hACR
T1 construct: expressed in transfected cells
T1 sequence (Q13510 22-395): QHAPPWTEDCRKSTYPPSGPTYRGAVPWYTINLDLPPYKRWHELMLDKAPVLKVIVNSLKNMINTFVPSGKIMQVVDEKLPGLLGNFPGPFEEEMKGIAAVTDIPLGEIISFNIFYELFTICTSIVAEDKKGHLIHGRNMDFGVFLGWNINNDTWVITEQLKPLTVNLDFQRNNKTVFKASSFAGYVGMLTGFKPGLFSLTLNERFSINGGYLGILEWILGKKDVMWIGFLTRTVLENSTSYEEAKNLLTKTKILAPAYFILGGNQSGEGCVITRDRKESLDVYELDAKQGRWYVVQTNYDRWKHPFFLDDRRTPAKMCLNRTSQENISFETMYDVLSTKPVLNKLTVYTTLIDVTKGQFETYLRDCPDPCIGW
Experimental: The ability of exemplary compounds to inhibit acid ceramidase was measured.
Cell lysates overexpressing acid ceramidase were used as the enzyme source for compound potency determination in a biochemical fluorescent assay. Briefly, compounds were preincubated with 10 μg protein of cell lysates in a dose-response manner for 1 hr at RT in the assay buffer containing 25 mM NaAC and 100 mM NaCl, pH 4.5. […] The samples were incubated with the stopping buffer at RT for 1 hr to allow the fluorescent product to be formed. […] Data were collected and used to determine the IC50 values of compounds by curve fitting to the four-parameter inhibition equation.

[2] = Compound solubility in water; assay type: physicochemical

| SMILES | IC50 [1] | solubility [2] |
| --- | --- | --- |
| CN(C)Cc1cncc(-c2cn(C(=O)NCCc3ccccc3)cn2)c1 [Example 44, 4-(5-((Dimethylamino)methyl)pyridin-3-yl)-N-phenethyl-1H-imidazole-1-carboxamide] | 0.2 to 1 µM | 30.8 µg/mL (≈ 88.1 µM) |
| CC(C)(C)CCNC(=O)n1cnc(-c2cccnc2)c1 [Example 45, N-(3,3-Dimethylbutyl)-4-(pyridin-3-yl)-1H-imidazole-1-carboxamide] | 0.2 to 1 µM | 12.1 µg/mL (≈ 44.4 µM) |
| CC(C)CCNC(=O)n1cnc(-c2ccccn2)c1 [Example 46, N-iso-Pentyl-4-(pyridin-2-yl)-1H-imidazole-1-carboxamide] | 0.2 to 1 µM | 13.8 µg/mL (≈ 53.4 µM) |
| CC(C)CCNC(=O)n1cnc(C2CCCN(C)C2)c1 (centres unmarked) [Example 47, N-iso-Pentyl-4-(1-methylpiperidin-3-yl)-1H-imidazole-1-carboxamide] | 0.2 to 1 µM | 32.2 µg/mL (≈ 116 µM) |
| CC(C)CCNC(=O)n1cnc(C2CCN(C)CC2)c1 [Example 48, N-iso-Pentyl-4-(1-methylpiperidin-4-yl)-1H-imidazole-1-carboxamide] | 0.2 to 1 µM | 34.2 µg/mL (≈ 123 µM) |
| Cc1nc(-c2cccnc2)cn1C(=O)NCCC(C)C [Example 49, N-iso-Pentyl-2-methyl-4-(pyridin-3-yl)-1H-imidazole-1-carboxamide] | < 0.2 µM | 7.9 µg/mL (≈ 29 µM) |
| CC(C)CCNC(=O)n1cnc(-c2nccs2)c1 [Example 50, N-iso-Pentyl-4-(thiazol-2-yl)-1H-imidazole-1-carboxamide] | 0.2 to 1 µM | 23.5 µg/mL (≈ 88.9 µM) |
| CC(C)CCNC(=O)n1cnc(-c2cncs2)c1 [Example 51, N-iso-Pentyl-4-(thiazol-5-yl)-1H-imidazole-1-carboxamide] | 0.2 to 1 µM | 25.1 µg/mL (≈ 94.9 µM) |
| COc1nc(-c2cccnc2)cn1C(=O)NCCC1CC1 [Example 53, N-(2-Cyclopropylethyl)-2-methoxy-4-(pyridin-3-yl)-1H-imidazole-1-carboxamide] | > 1 µM | 26.5 µg/mL (≈ 92.5 µM) |
| O=C(NCCC1CC1)n1cnc(-c2cccnc2N2CCC(N3CCOCC3)CC2)c1 [Example 54, N-(2-Cyclopropylethyl)-4-(2-(4-morpholinopiperidin-1-yl)pyridin-3-yl)-1H-imidazole-1-carboxamide] | < 0.2 µM | 32.8 µg/mL (≈ 77.3 µM) |
| CN1CCN(C2CCN(c3ncccc3-c3cn(C(=O)NCCC4CC4)cn3)CC2)CC1 [Example 55, N-(2-Cyclopropylethyl)-4-(2-(4-(4-methylpiperazin-1-yl)piperidin-1-yl)pyridin-3-yl)-1H-imidazole-1-carboxamide] | 0.2 to 1 µM | 41.5 µg/mL (≈ 94.8 µM) |
| CC(C)CCNC(=O)n1cnc(CC2CCN(C)CC2)c1 [Example 56, N-iso-Pentyl-4-((1-methylpiperidin-4-yl)methyl)-1H-imidazole-1-carboxamide] | 0.2 to 1 µM | 21.7 µg/mL (≈ 74.2 µM) |
| COc1nc(C(C)(C)C)cn1C(=O)NCCC(C)C [Example 57, 4-(tert-Butyl)-N-isopentyl-2-methoxy-1H-imidazole-1-carboxamide] | 0.2 to 1 µM | 13.3 µg/mL (≈ 49.7 µM) |
| COc1nc(C(C)(C)C)cn1C(=O)NC(C)CC(C)C (centres unmarked) [Example 58, 4-(tert-Butyl)-2-methoxy-N-(4-methylpentan-2-yl)-1H-imidazole-1-carboxamide] | 0.2 to 1 µM | 15.1 µg/mL (≈ 53.7 µM) |
| CC(C)CC(C)NC(=O)n1cnc(-c2cccnc2)c1 (centres unmarked) [Example 59, N-(4-Methylpentan-2-yl)-4-(pyridin-3-yl)-1H-imidazole-1-carboxamide] | 0.2 to 1 µM | 22.3 µg/mL (≈ 81.9 µM) |
| CCC(C)CNC(=O)n1cnc(-c2cccnc2)c1 (centres unmarked) [Example 60, N-(2-Methylbutyl)-4-(pyridin-3-yl)-1H-imidazole-1-carboxamide] | 0.2 to 1 µM | 25.6 µg/mL (≈ 99.1 µM) |
| O=C(NC1CCCCC1)n1cnc(-c2cccnc2)c1 [Example 61, N-Cyclohexyl-4-(pyridin-3-yl)-1H-imidazole-1-carboxamide] | > 1 µM | 23 µg/mL (≈ 85.1 µM) |
| COc1ccc(-c2cn(C(=O)NC3CCCCC3)cn2)cn1 [Example 62, N-Cyclohexyl-4-(6-methoxypyridin-3-yl)-1H-imidazole-1-carboxamide] | > 1 µM | 0.6 µg/mL (≈ 2 µM) |
| CCOc1nc(-c2ccccn2)cn1C(=O)NCCC1CC1 [Example 63, N-(2-Cyclopropylethyl)-2-ethoxy-4-(pyridin-2-yl)-1H-imidazole-1-carboxamide] | > 1 µM | 24.1 µg/mL (≈ 80.2 µM) |
| CCOc1nc(-c2cccnc2)cn1C(=O)NCCC1CC1 [Example 64, N-(2-Cyclopropylethyl)-2-ethoxy-4-(pyridin-3-yl)-1H-imidazole-1-carboxamide] | > 1 µM | 16.8 µg/mL (≈ 55.9 µM) |
| CC(C)Oc1nc(-c2cccnc2)cn1C(=O)NCCC1CC1 [Example 65, N-(2-Cyclopropylethyl)-2-isopropoxy-4-(pyridin-3-yl)-1H-imidazole-1-carboxamide] | 0.2 to 1 µM | 25 µg/mL (≈ 79.5 µM) |
| O=C(NCCC1CC1)n1cc(-c2cccnc2)nc1OC1CC1 [Example 66, 2-Cyclopropoxy-N-(2-cyclopropylethyl)-4-(pyridin-3-yl)-1H-imidazole-1-carboxamide] | > 1 µM | 25 µg/mL (≈ 80 µM) |
| CCOc1nc(-c2cccnc2)cn1C(=O)NCCC(C)C [Example 67, 2-Ethoxy-N-iso-pentyl-4-(pyridin-3-yl)-1H-imidazole-1-carboxamide] | > 1 µM | 8 µg/mL (≈ 26.5 µM) |

Results, then the compound that gave them:

| IC50 [1] | solubility [2] | SMILES |
| --- | --- | --- |
| 0.2 to 1 µM | 23 µg/mL (≈ 76.1 µM) | CSc1nc(-c2cccnc2)cn1C(=O)NCCC1CC1 [Example 67a] |
| > 1 µM | 2 µg/mL (≈ 6.05 µM) | CCOc1nc(-c2ccc(OC)nc2)cn1C(=O)NCCC1CC1 [Example 68, N-(2-Cyclopropylethyl)-2-ethoxy-4-(6-methoxypyridin-3-yl)-1H-imidazole-1-carboxamide] |
| 0.2 to 1 µM | 32 µg/mL (≈ 122 µM) | O=C(NCCC1CC1)n1cnc(-c2cscn2)c1 [Example 69, N-(2-Cyclopropylethyl)-4-(thiazol-4-yl)-1H-imidazole-1-carboxamide] |
| 0.2 to 1 µM | 1.3 µg/mL (≈ 4.54 µM) | COc1ccc(-c2cn(C(=O)NCCC3CC3)cn2)cn1 [Example 70, N-(2-Cyclopropylethyl)-4-(6-methoxypyridin-3-yl)-1H-imidazole-1-carboxamide] |
| < 0.2 µM | 22 µg/mL (≈ 62.1 µM) | COc1ccc(-c2cn(C(=O)NCCC3(C(F)(F)F)CC3)cn2)cn1 [Example 71, 4-(6-Methoxypyridin-3-yl)-N-(2-(1-(trifluoromethyl)cyclopropyl)ethyl)-1H-imidazole-1-carboxamide] |
| 0.2 to 1 µM | 22 µg/mL (≈ 83.9 µM) | O=C(NCCC1CC1)n1cnc(-c2ccns2)c1 [Example 72, N-(2-Cyclopropylethyl)-4-(iso-thiazol-5-yl)-1H-imidazole-1-carboxamide] |
| 0.2 to 1 µM | 26 µg/mL (≈ 99.9 µM) | Cc1nc(-c2cn(C(=O)NCCC3CC3)cn2)co1 [Example 73, N-(2-Cyclopropylethyl)-4-(2-methyloxazol-4-yl)-1H-imidazole-1-carboxamide] |
| > 1 µM | 34 µg/mL (≈ 129 µM) | O=C(NCCC1CC1)n1cnc(-n2ccc(F)n2)c1 [Example 74, N-(2-Cyclopropylethyl)-4-(3-fluoro-1H-pyrazol-1-yl)-1H-imidazole-1-carboxamide] |
| 0.2 to 1 µM | 13 µg/mL (≈ 46.5 µM) | COc1nc(C2CCCC2)cn1C(=O)NCCC(C)C [Example 75, 4-Cyclopentyl-N-iso-pentyl-2-methoxy-1H-imidazole-1-carboxamide] |
| 0.2 to 1 µM | 20 µg/mL (≈ 78.9 µM) | COc1nc(C(C)C)cn1C(=O)NCCC(C)C [Example 76] |
| 0.2 to 1 µM | 23 µg/mL (≈ 96.1 µM) | CCc1cn(C(=O)NCCC(C)C)c(OC)n1 [Example 77, 4-Ethyl-N-iso-pentyl-2-methoxy-1H-imidazole-1-carboxamide] |
| 0.2 to 1 µM | 28 µg/mL (≈ 133 µM) | COc1nccn1C(=O)NCCC(C)C [Example 78, N-iso-pentyl-2-methoxy-1H-imidazole-1-carboxamide] |
| < 0.2 µM | 11 µg/mL (≈ 43.8 µM) | CC(C)CC(C)NC(=O)n1cnc(C(C)(C)C)c1 (centres unmarked) [Example 79, 4-(tert-Butyl)-N-(4-methylpentan-2-yl)-1H-imidazole-1-carboxamide] |
| < 0.2 µM | 0.2 µg/mL (≈ 0.706 µM) | CSc1nc(C(C)(C)C)cn1C(=O)NCCC(C)C [Example 80, 4-(tert-Butyl)-N-iso-pentyl-2-(methylthio)-1H-imidazole-1-carboxamide] |
| > 1 µM | 23 µg/mL (≈ 82.6 µM) | COc1nc(C(C)(C)C#N)cn1C(=O)NCCC(C)C [Example 81, 4-(2-Cyanopropan-2-yl)-N-iso-pentyl-2-methoxy-1H-imidazole-1-carboxamide] |
| > 1 µM | 31 µg/mL (≈ 96.2 µM) | COc1nc(C2(C)CCC(=O)N2C)cn1C(=O)NCCC(C)C (centres unmarked) [Example 82, 4-(1,2-Dimethyl-5-oxopyrrolidin-2-yl)-N-iso-pentyl-2-methoxy-1H-imidazole-1-carboxamide] |
| 0.2 to 1 µM | 33 µg/mL (≈ 114 µM) | COc1nc(-c2cccnn2)cn1C(=O)NCCC(C)C [Example 83, N-iso-Pentyl-2-methoxy-4-(pyridazin-3-yl)-1H-imidazole-1-carboxamide] |
